In the OligoGym collection one finds target mRNA inhibition data, which are given here for 82 sequences.

This data set deals with IRF4. The following applies: ASO.

Several values for one entry are separate records, joined by “and”; a condition that tells them apart may be missing. Equal values may be shown once. After the bases stand the sugars from the 5' end (letter, count) and the backbone: PS all phosphorothioate, else s phosphorothioate and o phosphodiester by linkage. Methylation of C is not given here. e = 2'-O-(2-methoxyethyl) (MOE); k = constrained ethyl (cEt); d = 2'-deoxy (DNA)

Regarding ATAGCTGAGCTGATCA (sugars k3 d10 k3, PS), where the note is “MM.1R, 1 µM”, the target mRNA inhibition is 30%.

As for TGGCAACCATTTTCAC (sugars k4 d8 k4, PS), the target mRNA inhibition (SK-MEL-28, 4 µM) is 7%.

On to “GACACTTTTAGAGAGG (sugars kkdddddddddkdkdk, PS)”, for which, for the setting “MM.1R, 1 µM”, the target mRNA inhibition worked out at 14%.

For the sequence AAAACAGCCGCCGGCA (sugars k3 d10 k3, PS), the target mRNA inhibition (MM.1R, 1 µM) is -9%.

As to TCGAGATCATAGTGCA (sugars k3 d10 k3, PS), the target mRNA inhibition (MM.1R, 1 µM) amounted to 29%.

ATGTATACCAACGACA (sugars k3 d10 k3, PS): for the setting “SK-MEL-28, 4 µM”, the target mRNA inhibition is 63%.

Turning to CCATATACATTGAGGC (sugars k3 d10 k3, PS), the target mRNA inhibition (SK-MEL-28, 4 µM) came out at 44%.

Turning to CACAGAGGACTTCGGG (sugars k3 d10 k3, PS), the target mRNA inhibition (SK-MEL-28, 4 µM) stood at 49%.

“AGCATTTTATCATCCG (sugars k2 d9 e3 k2, PS)”: the target mRNA inhibition (MM.1R, 1 µM) stood at 28%.

With GAAGTTTACTAACTGG (sugars k3 d10 k3, PS), the target mRNA inhibition (SK-MEL-28, 4 µM) is 57%.

AGTACAGTCCACTCCA (sugars k3 d10 k3, PS): the target mRNA inhibition (MM.1R, 1 µM) turned out to be 7%.

Consider GAGCAGTAAACGCAAG (sugars k3 d10 k3, PS), for which the target mRNA inhibition (SK-MEL-28, 4 µM) amounted to 54%.

For the sequence AAATACGACAACTTTC (sugars k3 d10 k3, PS), for the setting “SK-MEL-28, 4 µM”, the target mRNA inhibition was 21%.

As to CATTTTATGGACCACG (sugars k3 d10 k3, PS), the target mRNA inhibition (SK-MEL-28, 4 µM) is 62%.

Turning to GTATAGTTCTCAACCA (sugars k3 d10 k3, PS), for the setting “SK-MEL-28, 4 µM”, the target mRNA inhibition is 47%.

TTTATAACCGGTAGAG (sugars k3 d10 k3, PS): the target mRNA inhibition (SK-MEL-28, 4 µM) turned out to be 54%.

Take “GGTTGGCTGGTCTTTG (sugars kdddddddddkekeke, PS)”: the target mRNA inhibition (MM.1R, 1 µM) stood at 26%.

For the sequence CCCAAAGAGAGTGGGT (sugars k3 d10 k3, PS), the target mRNA inhibition (SK-MEL-28, 4 µM) worked out at 0%.

In the case of AAGACCCCGTATCCCC (sugars k3 d10 k3, PS), where the note is “SK-MEL-28, 4 µM”, the target mRNA inhibition stood at 42%.

For the sequence CAAAATAGTCACTCAC (sugars k3 d10 k3, PS), the target mRNA inhibition (SK-MEL-28, 4 µM) was -3%.

As to CCTGAATTTACAGCAT (sugars k3 d10 k3, PS), under “SK-MEL-28, 4 µM”, the target mRNA inhibition was found to be 40%.

For the sequence ATGAACGGAAGTTTAC (sugars k3 d10 k3, PS), for the setting “SK-MEL-28, 4 µM”, the target mRNA inhibition came out at 54%.

With CGGTCAGCAGAACCAC (sugars k3 d10 k3, PS), under “MM.1R, 1 µM”, the target mRNA inhibition is -8%.

CGCCAGGCCGGCTAGG (sugars k3 d10 k3, PS): the target mRNA inhibition (SK-MEL-28, 4 µM) stood at 10%.

Consider CATGGAGGATCATAAA (sugars k3 d10 k3, PS), for which the target mRNA inhibition (SK-MEL-28, 4 µM) was 22%.

Consider TATACCAACGACAGCA (sugars k3 d10 k3, PS), for which the target mRNA inhibition (SK-MEL-28, 4 µM) was 49%.

As for “AGTTGTAAATGAGTCG (sugars kddddddddddkekek, PS)”, under “MM.1R, 1 µM”, the target mRNA inhibition stood at 44%.

In the case of “TCTATAGTGTTCCAGG (sugars kkdddddddddekeke, PS)”, the target mRNA inhibition is 5% (MM.1R, 0.074 µM); 17% (MM.1R, 0.222 µM); 37% (MM.1R, 0.666 µM); 56% and 50% (MM.1R, 1 µM); 68% (MM.1R, 2 µM).

Take ATGGCGCATAGGTCCT (sugars k3 d10 k3, PS): the target mRNA inhibition (MM.1R, 1 µM) was -5%.

On to ACAGGACCTGGTCCAG (sugars k3 d10 k3, PS), for which the target mRNA inhibition (SK-MEL-28, 4 µM) turned out to be 35%.

Consider ATAGCTGTTTATTTCC (sugars k3 d10 k3, PS), for which the target mRNA inhibition by setting is: (MM.1R, 0.074 µM) 7%; (MM.1R, 0.222 µM) 12%; (MM.1R, 0.666 µM) 24%; (MM.1R, 2 µM) 50%; (SK-MEL-28, 0.185 µM) 13%; (SK-MEL-28, 4 µM) 62%. In addition, the target mRNA inhibition stood at 75% (SK-MEL-28, 5 µM) and 90% (SK-MEL-28, 15 µM).

As for AGGTAAAGGCACATTC (sugars k3 d10 k3, PS), the target mRNA inhibition (SK-MEL-28, 4 µM) amounted to 19%.

As to CAGTGATGTCAGGTTT (sugars k3 d10 k3, PS), the target mRNA inhibition came out at 22% (MM.1R, 0.074 µM); 39% (MM.1R, 0.222 µM); 62% (MM.1R, 0.666 µM); 62% (MM.1R, 1 µM); 85% (MM.1R, 2 µM).

Take TTTTTCTCACCATGGC (sugars k3 d10 k3, PS): for the setting “SK-MEL-28, 4 µM”, the target mRNA inhibition came out at 74%.

“CAGTGACTTGCATCCA (sugars kddddddddddkekek, PS)”: the target mRNA inhibition (MM.1R, 1 µM) was 29%.

As for TTCATTAGAAAGCCCT (sugars k3 d10 k3, PS), the target mRNA inhibition (MM.1R, 1 µM) is -22%.

For the sequence TTCCAGGTCATTTGAC (sugars k3 d10 k3, PS), the target mRNA inhibition came to 2% (MM.1R, 0.074 µM); 3% (MM.1R, 0.222 µM); 9% (MM.1R, 0.666 µM); 27% (MM.1R, 2 µM); 66% (SK-MEL-28, 4 µM).

On to ACACACATTTGAGAGC (sugars k3 d10 k3, PS), for which the target mRNA inhibition (SK-MEL-28, 4 µM) was 66%.

For the sequence ACCAAAAGTACCACAG (sugars k3 d10 k3, PS), the target mRNA inhibition (MM.1R, 1 µM) was -8%.

As for “TGCTTGAGGTTTTCCT (sugars kkkdddddddddkeke, PS)”, the target mRNA inhibition (MM.1R, 1 µM) is 35%.

Regarding TAGAAAGAGCTGGTAG (sugars k3 d10 k3, PS), where the note is “SK-MEL-28, 4 µM”, the target mRNA inhibition was found to be 9%.

GGCCTTCCTGGCGGAG (sugars k3 d10 k3, PS): the target mRNA inhibition (SK-MEL-28, 4 µM) stood at 22%.

On to AGCTCCTACATACATT (sugars k3 d10 k3, PS), for which, for the setting “SK-MEL-28, 4 µM”, the target mRNA inhibition is 44%.

For the sequence AGCTAACTGGCCTCAA (sugars k3 d10 k3, PS), the target mRNA inhibition (SK-MEL-28, 4 µM) came to 23%.

For the sequence GTTCTCTACTGTTTGT (sugars k3 d10 k3, PS), the target mRNA inhibition (SK-MEL-28, 4 µM) came to 68%.

As to CCCCAAAATACTTTGC (sugars k3 d10 k3, PS), the target mRNA inhibition (SK-MEL-28, 4 µM) is 100%.

“AGCATTTTATCATCCG (sugars kkdddddddddkdkdk, PS)”: under “MM.1R, 1 µM”, the target mRNA inhibition is 11%.

Regarding GATGTATACATCACTG (sugars k3 d10 k3, PS), the target mRNA inhibition (SK-MEL-28, 4 µM) was determined as 70%.

Regarding ACTAACAGGGAGACTG (sugars k3 d10 k3, PS), the target mRNA inhibition (MM.1R, 1 µM) was -19%.

As to GGCGACTAACTCTCCT (sugars k3 d10 k3, PS), the target mRNA inhibition (SK-MEL-28, 4 µM) stood at 63%.

For TTTAAGGCCCTGTCAA (sugars k3 d10 k3, PS), the target mRNA inhibition (SK-MEL-28, 4 µM) is -17%.

On to GAACTAATGTCCCCAG (sugars k3 d10 k3, PS), for which, under “SK-MEL-28, 4 µM”, the target mRNA inhibition worked out at 61%.

Consider ATTTCCGGGTGTGGCT (sugars k3 d10 k3, PS), for which the target mRNA inhibition (MM.1R, 1 µM) stood at 7%.

For “ACAGTGACTTGCATCC (sugars kdddddddddkekeke, PS)”, the target mRNA inhibition (MM.1R, 1 µM) amounted to 6%.

Take TTAAGCTAAACTCCTA (sugars k3 d10 k3, PS): the target mRNA inhibition (SK-MEL-28, 4 µM) came out at 10%.

As to ATATAGAATTAGGTGC (sugars k3 d10 k3, PS), the target mRNA inhibition (SK-MEL-28, 4 µM) came to 16%.

Turning to AACTCATAGGTGTACA (sugars k3 d10 k3, PS), the target mRNA inhibition (SK-MEL-28, 4 µM) was 61%.

As to CTGCAACTGGCTCACT (sugars k3 d10 k3, PS), the target mRNA inhibition (SK-MEL-28, 4 µM) is 10%.

CCCCGAATAGGACCCC (sugars k3 d10 k3, PS): the target mRNA inhibition (SK-MEL-28, 4 µM) worked out at 56%.

With TATGAGAAACGGCCTG (sugars k3 d10 k3, PS), where the note is “SK-MEL-28, 4 µM”, the target mRNA inhibition is 45%.

With ATTCACACTGCCGTGA (sugars k3 d10 k3, PS), the target mRNA inhibition (SK-MEL-28, 4 µM) worked out at 34%.

With CAGCAAAACGCAGAGC (sugars k3 d10 k3, PS), the target mRNA inhibition (SK-MEL-28, 4 µM) stood at 54%.

For TACTGTTACCGATGCT (sugars k3 d10 k3, PS), the target mRNA inhibition is -6% (MM.1R, 0.0625 µM); -4% (MM.1R, 0.25 µM); 37% and 18% (MM.1R, 1 µM); 38% (MM.1R, 4 µM).

Consider AGCTACGCAATCTTCT (sugars k3 d10 k3, PS), for which the target mRNA inhibition (SK-MEL-28, 4 µM) stood at 47%.

As for AGTGAAGTCGGGAGAT (sugars k3 d10 k3, PS), under “MM.1R, 1 µM”, the target mRNA inhibition was determined as 8%.

For the sequence TTAAACAGCACTCAGA (sugars k3 d10 k3, PS), for the setting “SK-MEL-28, 4 µM”, the target mRNA inhibition is 33%.

As to GGGAACAGATAGTTAA (sugars k3 d10 k3, PS), the target mRNA inhibition (SK-MEL-28, 4 µM) was found to be 26%.

As for AGCGAAGGGTAAGGCG (sugars k3 d10 k3, PS), the target mRNA inhibition (SK-MEL-28, 4 µM) is 14%.

With CTCTGTAACTGACTAA (sugars k3 d10 k3, PS), where the note is “MM.1R, 1 µM”, the target mRNA inhibition stood at 16%.

On to GGTATACTTAAGCAAG (sugars k3 d10 k3, PS), for which, under “SK-MEL-28, 4 µM”, the target mRNA inhibition came out at 68%.

Regarding ATTATATACTGGTTGG (sugars k3 d10 k3, PS), the target mRNA inhibition is, setting by setting: (MM.1R, 0.0625 µM) 3% and 9%; (MM.1R, 0.25 µM) 15% and 25%; (MM.1R, 1 µM) 39% and 57%; (MM.1R, 4 µM) 77% and 74%.

Turning to CCAGGGTGAGCTGCTT (sugars k3 d10 k3, PS), the target mRNA inhibition (SK-MEL-28, 4 µM) was 31%.

With “GATTATATACTGGTTG (sugars kkddddddddddkeke, PS)”, the target mRNA inhibition (MM.1R, 1 µM) was determined as 45%.

In the case of “CCTCAGTTTGTGAAGC (sugars kkdddddddddkdkdk, PS)”, the target mRNA inhibition (MM.1R, 1 µM) turned out to be 8%.

For CCAAATGACTTAGTCA (sugars k3 d10 k3, PS), under “SK-MEL-28, 4 µM”, the target mRNA inhibition was 51%.

In the case of GCGGAGCTTCCCGTTG (sugars k3 d10 k3, PS), under “SK-MEL-28, 4 µM”, the target mRNA inhibition stood at 33%.

As to TACATTCACACTGCCG (sugars k3 d10 k3, PS), the target mRNA inhibition was -3% (MM.1R, 0.074 µM); 2% (MM.1R, 0.222 µM); 15% (MM.1R, 0.666 µM); 9% (MM.1R, 2 µM); 50% and 58% (SK-MEL-28, 4 µM).

For the sequence GACCCACACCAGGAAA (sugars k3 d10 k3, PS), under “SK-MEL-28, 4 µM”, the target mRNA inhibition came to 2%.

In the case of TGCTGAACCCCACAGG (sugars k3 d10 k3, PS), for the setting “SK-MEL-28, 4 µM”, the target mRNA inhibition came out at 33%.

Take GAATTTACAGCATCTA (sugars k3 d10 k3, PS): the target mRNA inhibition (SK-MEL-28, 4 µM) came out at 76%.

Consider TCAGTTTGTGAAGCAT (sugars k3 d10 k3, PS), for which, under “SK-MEL-28, 4 µM”, the target mRNA inhibition is 75% and 89%.

With TGGGAGTAATAGTAAA (sugars k3 d10 k3, PS), for the setting “SK-MEL-28, 4 µM”, the target mRNA inhibition stood at 16%.
